Assay results taken from patent EP0324212A1, “Glucuronic acid derivatives of opioid antagonists” (BAKER NORTON PHARMACEUTICALS, INC., priority 1988, dated 1989).
Several values for one entry are separate records, joined by “and”; a condition that tells them apart may be missing. Equal entries are not always repeated. Structures can show the parent of a compound that is named as a salt. Marks after values point to notes of the source that are not given here.

Tests used:
opioid-dependant animals = assay: Rapid Quantitative In Vivo Assay for Narcotic Antagonist of Katovich et al. (skin tail temperature rise as a CNS withdrawal sign); details: Figure 2; injection of 1000 µg/kg
Description: The Rapid Quantitative In Vivo Assay for Narcotic Antagonist of Katovich et al. (Substance and Alcohol Actions/Misuse, vol 5: 87095, 1984) was used. This assay is based on the extreme sensitivity of opioid-dependant animals to narcotic antagonists. Injection of these animals with a narcotic antagonist produces severe central nervous system withdrawal signs. One of these signs is an abrupt rise in the skin temperature of the tail.

[1] = tested on: morphine-induced hypomotility; assay: Charcoal meal assay (gastrointestinal motility) of Witkin et al.; type: in vivo, mice; details: for effect on percentage of intestine traveled in the absence of morphine: groups 4 and 6, no morphine; for effect on percentage of intestine traveled in the absence of morphine / alleviation of the depressant effect of morphine on intestinal transit: result in words; for alleviation of the depressant effect of morphine on intestinal transit: groups 5 and 7, morphine 10 mg/kg p.o.
Description: To determine whether nalmefene glucuronide would alleviate morphine-induced hypomotility, the charcoal meal assay method of Witkin et al. (J. Pharmacol. Ext. Therep., 133: 400, 1961) was done on 56 mice. […]

[2] = Absorption and intestinal distribution of 14C labelled nalmefene glucuronide after oral administration; type: in vivo; details: rats
Description: However the 2-3% of the dose which had reached the cecum by this time was almost exclusively free nalmefene. Therefore the glucuronide of an opioid antagonist provides a means of preventing narcotic-induced intestinal hypomotility without interfering with central nervous system effects of narcotics, such as analgesia.

[3] = Morphine 10 mg/kg p.o. 30 minutes before drug p.o., 15 mg/kg or 2.9 x 10⁻⁶ M/kg nalmefene glucuronide, 2.9 x 10⁻⁶ M/kg nalmefene HCl, determined 30 min later
[4] = Saline p.o. 30 minutes before drug p.o. (no morphine), 15 mg/kg or 2.9 x 10⁻⁶ M/kg nalmefene glucuronide, 2.9 x 10⁻⁶ M/kg nalmefene HCl, determined 30 min later

Structure (SMILES)	rise in skin tail temperature (opioid-dependant animals)	Percent Meal Traveled ± S.E.M. [1, 3]	Percent Meal Traveled ± S.E.M. [1, 4]	effect on percentage of intestine traveled in the absence of morphine [1]	alleviation of the depressant effect of morphine on intestinal transit ([1]; listed as nalmefene glucuronide)	alleviation of the depressant effect of morphine on intestinal transit ([1]; listed as nalmefene-3β-D-glucuronide)	alleviation of the depressant effect of morphine on intestinal transit ([1]; listed as nalmefene-β-D-glucuronide)	absorption following oral administration ([2]; doses as high as 40 mg/kg)	dose present in the small intestine still as nalmefene glucuronide ([2]; oral, 2 hours after dosing)	radioactivity in plasma ([2]; oral, 2 hours after dosing)	Percent Meal Traveled ± S.E.M. ([1]; mouse, in vivo)	reduction of the percentage of the intestine traveled ([1]; mouse, in vivo)	alleviation of the depressant effect of morphine on intestinal transit [1]
C=C1CCC2(O)C3Cc4ccc(OC5OC(C(=O)O)C(O)C(O)C5O)c5c4C2(CCN3CC2CC2)C1O5 [Nalmefene Glucuronide, nalmefene-3β-D-glucuronide]	had no effect	58 ± 12 (N=5)^d,^e,^h,^i Percent	66 ± 3 (N=8)^d Percent	neither nalmefene (group 6) nor nalmefene glucuronide (group 4) had any significant effect	protected the intestine against the depressant effect of morphine	as effective as nalmefene	as effective as nalmefene	not absorbed to any measurable extent	about 85%	No radioactivity could be detected			
CN1CC[C@]23c4c5ccc(O)c4O[C@H]2[C@@H](O)C=C[C@H]3[C@H]1C5 [Morphine]											28 ± 2 (N=8)^c Percent and 31 ± 3 (N=8)^c,^g Percent	more than half	
C=C1CC[C@@]2(O)[C@H]3Cc4ccc(O)c5c4[C@@]2(CCN3CC2CC2)[C@H]1O5 [Nalmefene HCl, 6-methylene-6-desoxy-N-cyclopropylmethyl-14-hydroxydihydronormorphine]		66 ± 14 (N=5)^d,^e,^f Percent	63 ± 2 (N=8)^c Percent	neither nalmefene (group 6) nor nalmefene glucuronide (group 4) had any significant effect									protected the intestine against the depressant effect of morphine
